# Results from ChEMBL document CHEMBL5725203, “Quinazolinone compounds and derivatives thereof” (2016).
# pIC50: −log10 of the molar value.
# Legend:
# [1] = molecular target: Poly [ADP-ribose] polymerase 1 (Homo sapiens, UniProt P09874); assay: (§1) Biochemical Assay: PARP1 biochemical assay was purchased as a kit from Trevigen (cat.#4676-096-K) and used per manufacturers recommendations.PARP2 biochemical assay was purchased as a kit from BPS (cat.#80552) and used per manufacturers recommendations.
# [2] = molecular target: Poly [ADP-ribose] polymerase 2 (Homo sapiens, UniProt Q9UGN5); assay: as §1
# Sequence of Poly [ADP-ribose] polymerase 2 (Q9UGN5 whole entry): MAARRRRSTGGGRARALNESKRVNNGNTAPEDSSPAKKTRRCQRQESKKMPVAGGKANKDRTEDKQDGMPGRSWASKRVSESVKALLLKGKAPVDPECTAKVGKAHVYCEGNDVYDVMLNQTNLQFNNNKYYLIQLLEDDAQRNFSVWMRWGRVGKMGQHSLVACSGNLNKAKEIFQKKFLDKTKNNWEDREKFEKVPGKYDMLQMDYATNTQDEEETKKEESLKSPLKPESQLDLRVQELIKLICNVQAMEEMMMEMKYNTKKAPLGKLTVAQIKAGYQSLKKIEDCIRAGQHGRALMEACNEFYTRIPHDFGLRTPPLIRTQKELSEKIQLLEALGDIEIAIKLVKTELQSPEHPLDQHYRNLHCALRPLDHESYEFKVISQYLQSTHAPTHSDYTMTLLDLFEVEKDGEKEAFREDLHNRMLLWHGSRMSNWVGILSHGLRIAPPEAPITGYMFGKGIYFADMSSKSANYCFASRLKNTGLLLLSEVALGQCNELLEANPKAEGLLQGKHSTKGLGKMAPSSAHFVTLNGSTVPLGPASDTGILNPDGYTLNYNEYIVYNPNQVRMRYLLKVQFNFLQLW
# Sequence of Poly [ADP-ribose] polymerase 1 (P09874 whole entry): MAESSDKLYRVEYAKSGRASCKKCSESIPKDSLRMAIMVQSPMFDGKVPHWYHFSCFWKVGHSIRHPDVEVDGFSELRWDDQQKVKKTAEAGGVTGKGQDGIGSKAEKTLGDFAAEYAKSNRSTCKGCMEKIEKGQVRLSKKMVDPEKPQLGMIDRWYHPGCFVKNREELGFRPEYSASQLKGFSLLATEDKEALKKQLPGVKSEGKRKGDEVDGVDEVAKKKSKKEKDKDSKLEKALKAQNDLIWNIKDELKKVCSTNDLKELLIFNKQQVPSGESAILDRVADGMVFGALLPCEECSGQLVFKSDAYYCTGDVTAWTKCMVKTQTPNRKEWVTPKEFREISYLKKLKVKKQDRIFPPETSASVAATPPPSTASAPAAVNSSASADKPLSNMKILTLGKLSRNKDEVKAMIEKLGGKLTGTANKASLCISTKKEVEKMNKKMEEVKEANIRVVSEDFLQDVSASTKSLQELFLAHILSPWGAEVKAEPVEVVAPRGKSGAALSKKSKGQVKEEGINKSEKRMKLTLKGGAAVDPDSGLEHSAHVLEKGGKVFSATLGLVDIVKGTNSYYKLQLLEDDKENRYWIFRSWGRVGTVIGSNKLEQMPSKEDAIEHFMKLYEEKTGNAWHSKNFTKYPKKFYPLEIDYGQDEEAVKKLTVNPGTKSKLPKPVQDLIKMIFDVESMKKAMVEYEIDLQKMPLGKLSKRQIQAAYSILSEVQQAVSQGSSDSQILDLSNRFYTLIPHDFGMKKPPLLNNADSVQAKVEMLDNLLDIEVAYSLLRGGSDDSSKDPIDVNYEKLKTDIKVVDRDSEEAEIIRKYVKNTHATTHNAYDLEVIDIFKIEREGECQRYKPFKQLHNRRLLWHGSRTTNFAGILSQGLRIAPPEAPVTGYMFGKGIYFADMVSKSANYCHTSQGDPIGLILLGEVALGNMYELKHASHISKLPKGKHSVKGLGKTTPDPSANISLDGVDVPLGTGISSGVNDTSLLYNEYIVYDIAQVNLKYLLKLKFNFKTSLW
Structure (SMILES),pIC50 [1],pIC50 [2]
O=C1Nc2cc(Cl)ccc2C1C1CCN(C(=O)CCCc2nc3ccccc3c(=O)[nH]2)CC1 (racemic),5.13,6.60
O=C(CCCc1nc2ccccc2c(=O)[nH]1)N1CCN(c2noc3ccccc23)CC1,6.00,6.48
COc1ccc2c(c1)[nH]c(=O)n2C1CCN(C(=O)CCCc2nc3ccccc3c(=O)[nH]2)CC1,5.75,6.80
O=C(CCCc1nc2ccccc2c(=O)[nH]1)N1CCC(n2nnc3ccccc32)CC1,5.65,5.86
O=C(CCSc1nc2ccccc2c(=O)[nH]1)N[C@H]1CC[C@H](c2nnc(-c3ccncc3)o2)CC1,4.99,5.52
O=C(CCCc1nc2ccccc2c(=O)[nH]1)N[C@H]1CC[C@H](Oc2ccccc2)C1,5.89,6.05
O=C(CCc1nc2ccccc2c(=O)[nH]1)N[C@H]1CC[C@H](n2c(=O)oc3ccccc32)CC1,5.65,5.51
O=C(CCCc1nc2ccccc2c(=O)[nH]1)N1CCC(c2noc3ccc(F)cc23)CC1,5.25,5.84
O=C(CCc1cc(=O)n2ccccc2n1)N[C@H]1CC[C@H](c2nnc(-c3ccccc3)o2)CC1,< 4.07,–
